Laboratory results published in ChEMBL document CHEMBL5696442, “Discovery of type II inhibitors of TGFβ-activated kinase 1 (TAK1) and mitogen-activated protein kinase kinase kinase kinase 2 (MAP4K2)” (J Med Chem, 2015).
Activity calls are given as the source filed them. No cut-off for these calls is given here.

Experiments:
[1] = biological target: T1, Serine/threonine-protein kinase D1 (Homo sapiens) (UniProt Q15139); assay: Inhibition of PKD1 Lys2 labeling site in human Huh-7 cell lysate at 1 uM by KiNativ Profiling analysis relative to control; assay type: subcellular
T1 sequence (whole entry): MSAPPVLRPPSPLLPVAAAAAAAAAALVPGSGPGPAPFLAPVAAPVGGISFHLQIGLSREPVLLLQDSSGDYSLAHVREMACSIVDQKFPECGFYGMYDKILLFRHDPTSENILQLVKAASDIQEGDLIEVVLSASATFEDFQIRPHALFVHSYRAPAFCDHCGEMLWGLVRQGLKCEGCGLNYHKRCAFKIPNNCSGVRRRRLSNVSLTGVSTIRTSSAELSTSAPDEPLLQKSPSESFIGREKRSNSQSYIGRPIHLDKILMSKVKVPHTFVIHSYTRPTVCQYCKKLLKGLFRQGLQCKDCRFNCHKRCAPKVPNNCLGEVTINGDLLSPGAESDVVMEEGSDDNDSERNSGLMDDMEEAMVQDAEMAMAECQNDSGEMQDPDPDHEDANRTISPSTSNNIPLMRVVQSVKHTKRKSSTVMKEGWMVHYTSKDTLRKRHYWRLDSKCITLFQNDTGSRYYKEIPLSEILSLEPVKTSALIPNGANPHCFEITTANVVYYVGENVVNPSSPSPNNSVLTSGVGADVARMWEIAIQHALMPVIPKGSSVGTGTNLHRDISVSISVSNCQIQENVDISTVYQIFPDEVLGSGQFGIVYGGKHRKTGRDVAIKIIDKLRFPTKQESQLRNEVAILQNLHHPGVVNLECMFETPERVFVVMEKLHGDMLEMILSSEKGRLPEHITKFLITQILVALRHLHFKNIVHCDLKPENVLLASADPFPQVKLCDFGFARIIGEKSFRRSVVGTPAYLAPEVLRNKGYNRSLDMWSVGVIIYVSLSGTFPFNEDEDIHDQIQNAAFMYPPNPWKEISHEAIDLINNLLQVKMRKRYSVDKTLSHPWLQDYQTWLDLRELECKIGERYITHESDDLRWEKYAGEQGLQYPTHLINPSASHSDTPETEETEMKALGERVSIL

[2] = biological target: Serine/threonine-protein kinase 17A (Homo sapiens) (UniProt Q9UEE5); assay: Inhibition of DRAK1 (unknown origin) at 10 uM by Ambit Kinomescan binding assay
[3] = biological target: Tyrosine-protein kinase Lck (Homo sapiens) (UniProt P06239); assay: Inhibition of LCK (unknown origin) at 10 uM by Ambit Kinomescan binding assay relative to control
Tyrosine-protein kinase Lck (Homo sapiens), sequence (P06239 2-509 limits assumed): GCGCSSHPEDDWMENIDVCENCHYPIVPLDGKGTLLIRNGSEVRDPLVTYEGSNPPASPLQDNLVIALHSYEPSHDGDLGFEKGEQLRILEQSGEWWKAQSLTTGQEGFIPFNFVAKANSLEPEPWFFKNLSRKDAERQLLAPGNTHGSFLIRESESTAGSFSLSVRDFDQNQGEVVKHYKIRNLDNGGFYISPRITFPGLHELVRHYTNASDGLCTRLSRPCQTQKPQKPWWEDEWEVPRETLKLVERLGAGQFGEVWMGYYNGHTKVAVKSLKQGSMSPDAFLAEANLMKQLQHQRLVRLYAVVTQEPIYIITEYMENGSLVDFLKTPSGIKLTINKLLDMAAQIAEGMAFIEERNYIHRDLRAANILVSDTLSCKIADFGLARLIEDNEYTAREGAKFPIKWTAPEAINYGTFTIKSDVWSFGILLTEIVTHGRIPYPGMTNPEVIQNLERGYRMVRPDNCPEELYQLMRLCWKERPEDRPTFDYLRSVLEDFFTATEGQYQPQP

[4] = biological target: Wee1-like protein kinase 2 (Homo sapiens) (UniProt P0C1S8); assay: Inhibition of WEE2 (unknown origin) at 10 uM by Ambit Kinomescan binding assay
[5] = biological target: Casein kinase I isoform delta (Homo sapiens) (UniProt P48730); assay: Inhibition of CK1delta Lys2 labeling site in human A-375 cells at 0.5 uM by KiNativ Profiling analysis relative to control; assay type: cell-based
Casein kinase I isoform delta (Homo sapiens), sequence (P48730 whole entry, looked up, canonical isoform): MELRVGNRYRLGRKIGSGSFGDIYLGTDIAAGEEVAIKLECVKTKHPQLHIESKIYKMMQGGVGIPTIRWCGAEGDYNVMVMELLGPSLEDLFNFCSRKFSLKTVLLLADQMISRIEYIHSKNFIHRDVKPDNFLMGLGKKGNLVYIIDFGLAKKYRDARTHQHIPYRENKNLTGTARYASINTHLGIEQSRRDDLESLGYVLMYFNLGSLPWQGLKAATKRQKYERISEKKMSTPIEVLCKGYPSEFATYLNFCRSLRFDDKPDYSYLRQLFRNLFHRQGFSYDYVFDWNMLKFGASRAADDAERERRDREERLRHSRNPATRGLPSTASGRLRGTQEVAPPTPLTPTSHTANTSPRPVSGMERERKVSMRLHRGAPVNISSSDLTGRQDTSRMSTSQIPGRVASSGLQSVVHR

[6] = biological target: Serine/threonine-protein kinase ATR (Homo sapiens) (UniProt Q13535); assay: Inhibition of ATR ATP labeling site in human Huh-7 cells at 10 uM by KiNativ Profiling analysis relative to control; assay type: cell-based
Serine/threonine-protein kinase ATR (Homo sapiens), sequence (Q13535 whole entry, looked up): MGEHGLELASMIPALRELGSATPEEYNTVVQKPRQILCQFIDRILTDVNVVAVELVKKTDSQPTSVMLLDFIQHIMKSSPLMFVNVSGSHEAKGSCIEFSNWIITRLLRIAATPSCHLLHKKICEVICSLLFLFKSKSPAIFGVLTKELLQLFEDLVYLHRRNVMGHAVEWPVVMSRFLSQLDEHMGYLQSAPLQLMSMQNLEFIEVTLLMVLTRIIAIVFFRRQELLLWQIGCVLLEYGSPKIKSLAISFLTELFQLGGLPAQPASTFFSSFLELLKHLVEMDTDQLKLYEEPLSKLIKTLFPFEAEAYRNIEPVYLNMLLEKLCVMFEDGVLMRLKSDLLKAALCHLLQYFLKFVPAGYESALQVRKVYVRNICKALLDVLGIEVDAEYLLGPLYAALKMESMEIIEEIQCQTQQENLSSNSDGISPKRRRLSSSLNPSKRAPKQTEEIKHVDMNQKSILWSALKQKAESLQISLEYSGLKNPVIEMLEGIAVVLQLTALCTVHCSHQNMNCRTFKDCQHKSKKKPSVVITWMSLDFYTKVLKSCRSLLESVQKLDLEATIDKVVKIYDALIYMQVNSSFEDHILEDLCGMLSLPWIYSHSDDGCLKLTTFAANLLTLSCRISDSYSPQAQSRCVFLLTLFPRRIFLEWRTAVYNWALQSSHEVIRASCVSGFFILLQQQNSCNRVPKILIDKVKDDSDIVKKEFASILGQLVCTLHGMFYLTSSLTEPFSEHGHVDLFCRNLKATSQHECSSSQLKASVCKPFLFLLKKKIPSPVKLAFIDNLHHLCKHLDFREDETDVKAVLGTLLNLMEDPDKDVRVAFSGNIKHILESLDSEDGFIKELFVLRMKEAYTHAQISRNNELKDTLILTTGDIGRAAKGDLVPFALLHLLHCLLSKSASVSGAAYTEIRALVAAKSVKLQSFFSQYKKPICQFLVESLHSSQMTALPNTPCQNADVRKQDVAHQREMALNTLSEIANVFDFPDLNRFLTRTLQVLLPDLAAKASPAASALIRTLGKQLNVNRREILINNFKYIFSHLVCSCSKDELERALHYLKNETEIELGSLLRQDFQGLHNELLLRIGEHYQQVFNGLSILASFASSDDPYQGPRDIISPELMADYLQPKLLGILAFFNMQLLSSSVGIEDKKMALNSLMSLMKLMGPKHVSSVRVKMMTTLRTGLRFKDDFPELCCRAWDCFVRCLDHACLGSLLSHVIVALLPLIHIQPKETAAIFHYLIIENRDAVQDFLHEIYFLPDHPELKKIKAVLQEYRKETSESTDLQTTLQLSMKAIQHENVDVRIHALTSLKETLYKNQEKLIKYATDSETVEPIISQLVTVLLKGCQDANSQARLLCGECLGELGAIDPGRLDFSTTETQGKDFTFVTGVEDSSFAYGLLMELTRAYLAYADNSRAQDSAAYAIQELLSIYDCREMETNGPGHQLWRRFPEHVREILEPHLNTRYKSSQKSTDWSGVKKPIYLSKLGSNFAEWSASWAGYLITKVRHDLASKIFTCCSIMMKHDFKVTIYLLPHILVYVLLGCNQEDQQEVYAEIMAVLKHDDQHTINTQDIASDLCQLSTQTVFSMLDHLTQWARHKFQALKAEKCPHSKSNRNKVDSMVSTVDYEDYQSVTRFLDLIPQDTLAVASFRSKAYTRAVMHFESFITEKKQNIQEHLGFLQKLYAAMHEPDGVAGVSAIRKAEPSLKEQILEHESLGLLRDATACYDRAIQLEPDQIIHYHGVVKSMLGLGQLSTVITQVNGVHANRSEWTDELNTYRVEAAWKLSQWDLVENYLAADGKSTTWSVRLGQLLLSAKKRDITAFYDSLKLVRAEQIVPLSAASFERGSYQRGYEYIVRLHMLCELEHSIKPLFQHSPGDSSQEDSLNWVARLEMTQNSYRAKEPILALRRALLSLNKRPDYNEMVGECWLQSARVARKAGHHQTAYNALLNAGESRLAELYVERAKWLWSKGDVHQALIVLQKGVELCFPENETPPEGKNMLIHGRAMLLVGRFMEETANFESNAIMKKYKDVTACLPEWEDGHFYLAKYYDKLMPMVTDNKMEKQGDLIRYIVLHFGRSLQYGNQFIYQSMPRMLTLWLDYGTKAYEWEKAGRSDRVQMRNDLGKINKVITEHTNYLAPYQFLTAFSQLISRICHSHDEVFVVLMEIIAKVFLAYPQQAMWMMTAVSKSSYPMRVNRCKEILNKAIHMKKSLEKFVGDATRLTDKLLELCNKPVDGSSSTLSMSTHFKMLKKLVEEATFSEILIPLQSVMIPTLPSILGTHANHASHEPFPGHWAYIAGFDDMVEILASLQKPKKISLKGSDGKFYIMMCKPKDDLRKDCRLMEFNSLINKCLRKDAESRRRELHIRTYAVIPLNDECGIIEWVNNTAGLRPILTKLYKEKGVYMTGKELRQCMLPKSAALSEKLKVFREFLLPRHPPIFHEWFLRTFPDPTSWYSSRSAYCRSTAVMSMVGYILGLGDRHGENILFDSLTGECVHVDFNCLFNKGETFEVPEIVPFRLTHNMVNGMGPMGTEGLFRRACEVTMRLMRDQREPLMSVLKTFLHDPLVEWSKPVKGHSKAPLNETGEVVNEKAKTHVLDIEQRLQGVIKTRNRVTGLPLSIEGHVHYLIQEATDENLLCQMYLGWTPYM

[7] = biological target: RPS6KA1/RPS6KA2/RPS6KA3 (Homo sapiens) (UniProt P51812+Q15349+Q15418); assay: Inhibition of RSK1/2/3 Domain 1 K2 labeling site harbouring DLKPENILLDEEGHIK in human Huh-7 cells at 10 uM by KiNativ Profiling analysis relative to control; assay type: cell-based
[8] = biological target: Mitogen-activated protein kinase kinase kinase 20 (Homo sapiens, UniProt Q9NYL2); assay: Inhibition of ZAK K1 labeling site in human Huh-7 cells at 1 uM by KiNativ Profiling analysis relative to control; assay type: cell-based
[9] = biological target: T2, Mitogen-activated protein kinase 12 (Homo sapiens) (UniProt P53778); assay: Inhibition of p38gamma (unknown origin) at 10 uM by Ambit Kinomescan binding assay relative to control; values are per cent of control
T2 sequence (whole entry): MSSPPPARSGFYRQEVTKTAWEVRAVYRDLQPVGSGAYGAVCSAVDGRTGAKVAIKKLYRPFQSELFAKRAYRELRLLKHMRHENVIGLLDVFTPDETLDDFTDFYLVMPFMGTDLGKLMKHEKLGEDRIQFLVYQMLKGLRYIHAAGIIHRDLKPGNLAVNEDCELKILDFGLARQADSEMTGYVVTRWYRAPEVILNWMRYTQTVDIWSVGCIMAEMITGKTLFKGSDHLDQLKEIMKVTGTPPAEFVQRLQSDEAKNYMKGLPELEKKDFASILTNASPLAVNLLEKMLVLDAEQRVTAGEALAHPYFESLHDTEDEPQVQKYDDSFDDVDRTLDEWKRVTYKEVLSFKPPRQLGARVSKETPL

[10] = biological target: Membrane-associated tyrosine- and threonine-specific cdc2-inhibitory kinase (Homo sapiens) (UniProt Q99640); assay: Inhibition of PKMYT1 (unknown origin) at 1 uM by Ambit Kinomescan binding assay relative to control
Membrane-associated tyrosine- and threonine-specific cdc2-inhibitory kinase (Homo sapiens), sequence (Q99640 whole entry, the tested form may be a part): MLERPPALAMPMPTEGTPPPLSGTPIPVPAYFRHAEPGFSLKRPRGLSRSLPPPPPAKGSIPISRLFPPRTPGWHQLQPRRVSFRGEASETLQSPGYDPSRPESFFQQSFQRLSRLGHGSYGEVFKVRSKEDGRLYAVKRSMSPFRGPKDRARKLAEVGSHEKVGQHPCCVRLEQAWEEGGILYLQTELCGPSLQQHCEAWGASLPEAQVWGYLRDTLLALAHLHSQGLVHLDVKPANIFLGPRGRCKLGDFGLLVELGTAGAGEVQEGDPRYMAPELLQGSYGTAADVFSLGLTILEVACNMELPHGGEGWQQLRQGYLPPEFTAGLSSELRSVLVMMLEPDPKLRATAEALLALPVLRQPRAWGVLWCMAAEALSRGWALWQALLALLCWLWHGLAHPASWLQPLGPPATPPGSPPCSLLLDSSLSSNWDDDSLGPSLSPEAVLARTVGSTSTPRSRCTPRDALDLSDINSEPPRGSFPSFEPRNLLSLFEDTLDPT

[11] = biological target: Ribosomal protein S6 kinase alpha-4 (Homo sapiens) (UniProt O75676); assay: Inhibition of MSK2 domain1 Lys2 labeling site in human A-375 cells at 5 uM by KiNativ Profiling analysis relative to control; assay type: cell-based
Ribosomal protein S6 kinase alpha-4 (Homo sapiens), sequence (O75676 whole entry, looked up, the tested form may be a part): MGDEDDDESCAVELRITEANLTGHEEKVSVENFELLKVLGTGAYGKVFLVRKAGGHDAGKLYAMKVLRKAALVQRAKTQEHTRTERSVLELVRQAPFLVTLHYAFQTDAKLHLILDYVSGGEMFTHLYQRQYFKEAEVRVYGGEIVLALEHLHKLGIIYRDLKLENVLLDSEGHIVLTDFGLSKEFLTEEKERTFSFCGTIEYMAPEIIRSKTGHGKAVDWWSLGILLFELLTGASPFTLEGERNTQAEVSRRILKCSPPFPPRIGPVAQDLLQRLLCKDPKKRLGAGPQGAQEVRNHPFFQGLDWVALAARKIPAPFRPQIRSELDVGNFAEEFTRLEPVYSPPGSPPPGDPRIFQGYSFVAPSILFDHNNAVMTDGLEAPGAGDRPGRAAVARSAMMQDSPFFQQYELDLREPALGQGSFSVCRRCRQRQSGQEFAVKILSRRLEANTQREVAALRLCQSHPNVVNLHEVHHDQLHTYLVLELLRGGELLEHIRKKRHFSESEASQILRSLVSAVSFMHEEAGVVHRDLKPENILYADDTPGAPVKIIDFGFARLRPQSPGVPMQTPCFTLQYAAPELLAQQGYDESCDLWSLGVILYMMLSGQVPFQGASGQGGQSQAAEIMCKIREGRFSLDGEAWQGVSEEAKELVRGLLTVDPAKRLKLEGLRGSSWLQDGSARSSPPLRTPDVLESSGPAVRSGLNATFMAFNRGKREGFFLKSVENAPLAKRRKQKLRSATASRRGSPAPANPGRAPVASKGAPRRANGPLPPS

[12] = biological target: T3, Interleukin-1 receptor-associated kinase 4 (Homo sapiens) (UniProt Q9NWZ3); assay: Inhibition of IRAK4 Lys2 labeling site in human A-375 cells at 0.5 uM by KiNativ Profiling analysis relative to control; assay type: cell-based
T3 sequence (whole entry): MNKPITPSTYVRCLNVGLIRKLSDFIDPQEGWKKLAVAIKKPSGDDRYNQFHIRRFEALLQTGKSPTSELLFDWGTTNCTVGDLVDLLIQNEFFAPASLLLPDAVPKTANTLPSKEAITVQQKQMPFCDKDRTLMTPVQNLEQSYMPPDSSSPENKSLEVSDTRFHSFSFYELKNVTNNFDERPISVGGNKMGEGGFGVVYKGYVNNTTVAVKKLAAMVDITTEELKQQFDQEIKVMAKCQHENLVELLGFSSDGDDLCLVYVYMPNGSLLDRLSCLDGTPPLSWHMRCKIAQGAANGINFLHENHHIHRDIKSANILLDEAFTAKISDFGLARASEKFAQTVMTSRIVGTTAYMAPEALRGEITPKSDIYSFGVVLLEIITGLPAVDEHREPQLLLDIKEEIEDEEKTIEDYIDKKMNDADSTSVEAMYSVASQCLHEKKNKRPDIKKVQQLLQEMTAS

[13] = biological target: Cyclin-G-associated kinase (Homo sapiens) (UniProt O14976); assay: Inhibition of GAK (unknown origin) at 1 uM by Ambit Kinomescan binding assay relative to control; values are per cent of control
[14] = biological target: Receptor-type tyrosine-protein kinase FLT3 (Homo sapiens) (UniProt P36888); assay: Inhibition of FLT3 (unknown origin) at 1 uM by Ambit Kinomescan binding assay relative to control; values are per cent of control

SMILES: CNc1cc(Oc2cc(C(=O)Nc3cc(N4CCN(C)CC4)cc(C(F)(F)F)c3)ccc2C)ncn1
- inhibition [1]: -3.5%

SMILES: CCN1CCN(Cc2ccc(NC(=O)c3ccc(C)c(Oc4ccnc5[nH]ccc45)c3)cc2C(F)(F)F)CC1
- inhibition [2]: inactive
- inhibition [3]: 0.8%
- inhibition [4]: inactive
- inhibition [5]: 3.3%
- inhibition [6]: 19.8%
- inhibition [7]: 8.7%
- inhibition [8]: 50.3%
- percent of control [9]: 0%

SMILES: CCN1CCN(Cc2ccc(NC(=O)c3ccc(C)c(/C=C/c4cnc5[nH]ccc5c4OC)c3)cc2C(F)(F)F)CC1
- inhibition [10]: 68%
- inhibition [11]: 9%
- inhibition [12]: 10.3%
- residual activity [13]: 7%
- residual activity [14]: 0.15%
